Data published in patent US20080227854A1, “Compound 3-(1, 1-Dimethyl-Allyl)-6-Hydroxy-Chromen-2-One and its Pharmaceutically Acceptable Salts Thereof” (COUNCIL OF SCIENTIFIC & INDUSTRIAL RESEARCH, priority 2007, published 2008).

Assays:
[1] = system: nitric oxide production in murine macrophage cells (J774); test: Nitric oxide assay using Griess nitrite assay in LPS-challenged macrophages; type: cell-based
Method: Murine macrophage cell line (J-774) was used to check the anti-inflammatory effects of the extract, sub-fractions and the isolated active compounds. The macrophages are cultured in Dulbeccos Modified Eagles Medium (DMEM) supplemented with antibiotic and antimycotic solution and 10% fetal calf serum at 37° C. in a CO2 incubator (5%). The cell viability was measured using the Trypan blue exclusion method. For inducing the inflammatory conditions the cell were stimulated with LPS (1 μg/ml) and the effect of the compounds on the inflammatory condition was assessed by measuring the inflammatory mediator, nitric oxide and the respective inos gene expression by the murine macrophages.
The murine macrophage cells release nitric oxide along with other pro-inflammatory molecules, when stimulated with LPS. The cells were preincubated with the crude extract (300 and 500 μg/ml), ethyl ether fraction (50, 100, 150 μg/ml), the isolated active compound (5, 10, 20 μg/ml) and rutin (20, 40, 80 μM) for 2 hours and then challenged with LPS (1 μg/ml) for 16 hours. After 16 hours the cell supernatant was used to measure the nitric oxide production as nitrite using Griess nitrite assay (Lee et al., 2003, Life Science 73, 1401-1412). Equal amount of cell supernatant was incubated with Griess reagent for 10 minutes at room temperature and the magenta color developed was measured using spectrophotometer.
Each of the four fractions obtained in Example III were then used in different concentrations (50 μg/ml, 100 µg/ml and 150 μg/ml) for their effect on nitric oxide inhibition in vitro. Murine macrophages (J774) were maintained in DMEM medium, 37° C. in CO2 incubator (5% CO2). The cells were harvested and challenged with LPS (Sigma) at a concentration of 1 μg/ml with and without the four test fractions obtained in Example III for 16 hours at 37° C. in the humidified incubator with 5% CO2. After 16 hours the cell free supernatant was collected and the nitric oxide production was measured as described by Lee et al. Briefly 100 μl of supernatant samples were incubated for 10 min at room temperature with an equal volume of Griess reagent (0.1% naphthalene diamine dihydrochloride, 1% sulfanilamide in 5% H2SO4) in microtitre plate. The absorbance at 550 nm was measured. Sodium nitrite was used as the standard.

[2] = system: murine macrophage cells (J774); test: Cytotoxicity assay using MTT; type: cell-based; settings: for Cell viability (%): J774, MTT
Method: The murine macrophage cells were plated in cell culture plates and then treated with or without the crude extract/ethyl ether fraction/purified compound. The cells were then washed and challenged with LPS (1 μg/ml) for 16 hours. The MTT (5 mg/ml in PBS) was then added and the cells were further incubated for 4 hours at 37° C. in CO2 incubator. MTT solubilization buffer was then added and absorbance at 590 nm was determined.

[3] = system: inos gene; test: RT-PCR analysis for inos gene expression; type: cell-based, murine
Method: The murine macrophage cells were preincubated with the test extract, ethyl ether fraction and the compound for 2 hours (as mentioned above), washed and then challenged with LPS for 4 hours. After the incubation period the cells were washed with phosphate buffered saline (PBS), scraped and then pelleted by centrifugation. The total RNA from the pelleted cells was isolated using EZ-RNA isolation kit (Biological industries) using vendor recommended protocol. Then, cDNA was prepared from the total RNA using single strand cDNA synthesis kit (Clontech, USA) and the expression of inos gene was estimated using gene specific primers for inos gene.
The murine macrophage cells (J774) were challenged with LPS at a concentration of 1 μg/ml with and without the four test fractions obtained in Example III for 4 hours at 37° C. in the humidified incubator with 5% CO2. The cells were harvested and were used to isolate the total RNA using (RNA isolation kit, Qiagen). The RNA was quantified spectrophotometrically and 2 μg of total RNA from each sample was used for cDNA synthesis (cDNA synthesis kit, Clontech). Gene specific PCR for the inducible nitric oxide synthase (inos) and glyceraldehyde-3-phosphatedehyrogenase (G3PDH) as house keeping gene was performed. Primer sequences were designed from cDNA sequences of the specific gene (www:ncbi.nlm.nih.gov/locuslink) using DNASTAR software. […]

[4] = system: Balb/c mice; test: LPS induced endotoxemia in Balb/c mice, total nitrite in plasma; type: in vivo
Method: The HPLC purified lead compound was suspended in phosphate buffered saline (PBS) at a concentration of 20 mg/ml for in vivo experiment. Balb/c mice, 6 to 8 week of age, weighing 23-25 g, were housed in micro-barrier cages on sterile bedding and fed ad libitum water and food. The animals were divided into three groups containing 6 mice in each group. Four milligrams (160 mg/kg body weight) of the isolated lead compound was administered intra-peritoneally (i.p.) 2 hours prior to LPS challenge. After 2 hours 150 μg LPS was injected i.p., and the mice were kept for 8 hours. In negative control mice, PBS was injected whereas, only LPS injected mice were used as positive control. After 8 hours of LPS injection, the blood was collected in ACD buffer from each mouse by retro-orbital puncture. The blood samples were immediately centrifuged and the plasma samples were collected and stored at −20° C. till nitrite assay. The plasma samples were then diluted 1:1 using 1× reaction buffer (total nitrite estimation kit, R & D systems, USA) and protein from the plasma was removed using 10 kDa centricon (Centricon, USA). Then protein free plasma samples were used for total nitrite estimation (NO^2−+NO^3−) using the same kit.
The Balb/c mice were used to validate the in vivo effect of the active compound on endotoxin induced inflammation by LPS. Balb/c mice, 6 to 8 week of age, weighing 23-25 g, were housed in micro-barrier cages on sterile bedding and fed ad libitum water and food. The animals were divided into three groups containing 6 mice in each group. Four milligrams (160 mg/kg body weight) of the active compound was preinjected intra-peritonially (i.p.) into the mice for two hours and then LPS (150 μg) was injected i.p. and left for eight hours. […] The plasma from the blood samples were collected by centrifuging at […] for 10 minutes and stored at −80° C. till nitric oxide was analyzed using Griess nitrite assay. The total nitrite in the plasma samples were detected using nitric oxide (NO^2−/NO^3−) assay kit (R & D systems, USA). […]

## C[C@@H]1O[C@@H](OC[C@H]2O[C@@H](Oc3c(-c4ccc(O)c(O)c4)oc4cc(O)cc(O)c4c3=O)[C@H](O)[C@@H](O)[C@@H]2O)[C@H](O)[C@H](O)[C@H]1O [Rutin, reference compound]
[1]; Mus musculus, J774, 16 h, 12.2 μg (20 μM), J774, LPS 1 μg/ml 16 h
  inhibition at 20 µM: 11%
[1]; Mus musculus, J774, 16 h, 24.4 μg (40 μM), J774, LPS 1 μg/ml 16 h
  inhibition at 40 µM: 20.6%
[1]; Mus musculus, J774, 16 h, 48.8 μg (80 μM), J774, LPS 1 μg/ml 16 h
  inhibition at 80 µM: 27%
[2]; 12.2 μg (20 μM)
  Cell viability (%): >85%
[2]; 24.4 μg (40 μM)
  Cell viability (%): >85%
[2]; 48.8 μg (80 μM)
  Cell viability (%): ≦75%

## C=CC(C)(C)c1cc2cc(O)ccc2oc1=O [Rg-001, 3-(1,1-dimethyl-allyl)-6-hydroxy-chromen-2-one]
[1]; 5 μg (21.74 μM), J774, LPS 1 μg/ml 16 h, 21.74 µM
  Nitric oxide inhibition (%): 25.4%
[1]; 20 μg (87 μM), J774, LPS 1 μg/ml 16 h, 87 µM
  Nitric oxide inhibition (%): 63.5%
[1]; 5, 10 and 20 μg/ml, J774, LPS
  inhibition of nitric oxide production: significant inhibition
[1]; Mus musculus, J774, 16 h, 5 μg (21.74 μM), J774, LPS 1 μg/ml 16 h
  inhibition at 21.74 µM: 25%
[1]; Mus musculus, J774, 16 h, 10 μg (43.5 μM), J774, LPS 1 μg/ml 16 h
  inhibition at 43.5 µM: 40%
[1]; Mus musculus, J774, 16 h, 20 μg (87 μM), J774, LPS 1 μg/ml 16 h
  inhibition at 87 µM: 70%
[2]; 5 μg (21.74 μM)
  Cell viability (%): >85%
[2]; 10 μg (43.5 μM)
  Cell viability (%): >85%
[2]; 20 μg (87 μM)
  Cell viability (%): >85%
[2]; 20 μg (87 μM), listed as 3-(1,1-dimethyl-allyl)-6-hydroxy-chromen-2-one
  Cell viability (%): > 85%
[2]; all the doses ranging from 20 to 100 μg/ml
  cell viability: > 85%
[2]; highest concentration 50 μg i.e. 217.5 μM, MTT
  viability of macrophage cells: > 85%
[3]
  inhibition of inos gene: 70%
[3]; J774, LPS challenge
  effect on inos gene expression: inhibit the gene expression significantly
[4]; 160 mg/kg body weight i.p. 2 hours prior to LPS (150 μg), blood after 8 hours
  inhibition of total nitrite in the plasma samples: > 75%
[4]; 160 mg/kg i.p., 8 hours after LPS, compared to the LPS challenged mice
  behavioral condition of treated mice: normal behavioral condition
[4]; effective dose of 40 mg/kg to 160 mg/kg body weight
  in-vivo inflammation (NO inhibition): 60% to 80
